We go through 31 molecules from patent US11306081B2, “Phenylacetamides as inhibitors of rock” (BRISTOL-MYERS SQUIBB COMPANY, priority 2017, dated 2022).

What is called IC50 is the point on the concentration scale where inhibition reaches its midpoint. Lower therefore signals inhibition by little substance.

This assay deals with ROCK2 (Homo sapiens (Human), UniProt O75116). The experiment in a line: ROCK assay (LABCHIP 3000 peptide phosphorylation assay). The assay is classed as biochemical. The note with it: 5 μM ATP, 1.5 μM peptide substrate, dose-response. The method, then:
The effectiveness of compounds of the present invention as ROCK inhibitors can be determined in a 30 μL assay containing 20 mM HEPES, pH 7.5, 20 mM MgCl2, 0.015% Brij-35, 4 mM DTT, 5 μM ATP and 1.5 μM peptide substrate (FITC-AHA-AKRRRLSSLRA-OH) (SEQ ID No. 1). Compounds were dissolved in DMSO so that the final concentration of DMSO was <2%, and the reaction was initiated with Rho kinase variants. After incubation, the reaction was terminated by the addition of EDTA and the phosphorylated and non-phosphorylated peptides separated using a LABCHIP® 3000 Reader (Caliper Life Sciences). […] Compounds were tested in dose-response format, and the inhibition of kinase activity was calculated at each concentration of compound. The inhibition data were fit using a curve-fitting program to determine the IC50; i.e., the concentration of compound required to inhibit 50% of kinase activity.

Chain of ROCK2 (O75116 whole entry, species assumed): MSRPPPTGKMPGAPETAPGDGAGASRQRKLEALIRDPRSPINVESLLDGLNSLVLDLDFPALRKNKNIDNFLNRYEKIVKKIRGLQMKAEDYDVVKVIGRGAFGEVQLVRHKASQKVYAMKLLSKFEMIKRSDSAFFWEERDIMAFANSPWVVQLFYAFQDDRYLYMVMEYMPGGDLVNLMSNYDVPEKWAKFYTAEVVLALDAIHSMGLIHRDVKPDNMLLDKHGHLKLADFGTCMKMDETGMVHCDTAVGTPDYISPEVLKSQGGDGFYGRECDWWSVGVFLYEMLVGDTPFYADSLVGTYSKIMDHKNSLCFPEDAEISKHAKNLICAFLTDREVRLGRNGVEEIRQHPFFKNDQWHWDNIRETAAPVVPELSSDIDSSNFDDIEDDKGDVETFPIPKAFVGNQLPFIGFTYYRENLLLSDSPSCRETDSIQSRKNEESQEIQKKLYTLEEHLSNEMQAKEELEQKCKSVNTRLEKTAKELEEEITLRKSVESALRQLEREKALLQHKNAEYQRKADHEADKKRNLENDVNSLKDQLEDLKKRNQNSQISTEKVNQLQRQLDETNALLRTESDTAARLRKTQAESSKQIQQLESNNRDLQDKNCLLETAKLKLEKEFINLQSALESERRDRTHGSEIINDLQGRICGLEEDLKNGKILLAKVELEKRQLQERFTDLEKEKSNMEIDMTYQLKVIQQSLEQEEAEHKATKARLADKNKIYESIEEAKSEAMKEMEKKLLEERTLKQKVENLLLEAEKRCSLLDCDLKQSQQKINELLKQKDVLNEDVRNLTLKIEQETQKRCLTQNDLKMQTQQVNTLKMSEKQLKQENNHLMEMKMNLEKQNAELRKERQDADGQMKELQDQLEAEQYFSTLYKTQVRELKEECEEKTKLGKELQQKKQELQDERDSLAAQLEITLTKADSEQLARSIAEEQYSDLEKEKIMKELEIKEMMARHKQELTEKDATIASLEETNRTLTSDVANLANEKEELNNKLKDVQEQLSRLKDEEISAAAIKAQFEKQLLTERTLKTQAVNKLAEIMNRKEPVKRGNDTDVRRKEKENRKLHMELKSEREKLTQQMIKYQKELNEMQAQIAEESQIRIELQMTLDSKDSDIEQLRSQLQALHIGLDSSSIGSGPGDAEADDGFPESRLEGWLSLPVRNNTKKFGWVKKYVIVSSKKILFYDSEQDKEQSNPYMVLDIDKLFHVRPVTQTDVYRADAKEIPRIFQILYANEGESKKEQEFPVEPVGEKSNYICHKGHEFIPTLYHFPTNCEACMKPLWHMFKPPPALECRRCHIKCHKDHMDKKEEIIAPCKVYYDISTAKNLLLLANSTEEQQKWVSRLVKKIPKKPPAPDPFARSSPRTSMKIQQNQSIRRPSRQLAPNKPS

In turn, `NC(=O)c1cccnc1Oc1ccc(CC(=O)Nc2nc3ccccc3n2CC(F)F)cc1F` [Example 111, 2-(4-(2-((1-(2,2-difluoroethyl)-1H-benzo[d]imidazol-2-yl)amino)-2-oxoethyl)-2-fluorophenoxy)nicotinamide] gave an IC50 of 37 nM. Turning to `Cn1ccc(-c2csc(NC(=O)Cc3ccc(Oc4ncccc4C(N)=O)c(F)c3)n2)cc1=O` [Example 017, 2-(2-fluoro-4-(2-((4-(1-methyl-2-oxo-1,2-dihydropyridin-4-yl)thiazol-2-yl)amino)-2-oxoethyl)phenoxy)nicotinamide], the IC50 came out at 404 nM.

`COc1ccc2c(c1)CCc1sc(NC(=O)Cc3ccc(Oc4ncccc4C(N)=O)c(Cl)c3)nc1-2` [Example 116, 2-(2-chloro-4-(2-((7-methoxy-4,5-dihydronaphtho[1,2-d]thiazol-2-yl)amino)-2-oxoethyl)phenoxy)nicotinamide] displayed a 50% inhibitory concentration (IC50) of 8 nM. As for `NC(=O)c1cccnc1Oc1ccc(CC(=O)Nc2nc(C3CC3)ns2)cc1F` [Example 101, 2-(4-(2-((3-cyclopropyl-1,2,4-thiadiazol-5-yl)amino)-2-oxoethyl)-2-fluorophenoxy)nico-tinamide], the midpoint of inhibition, the IC50, lay at 261 nM.

`NC(=O)c1cccnc1Oc1ccc(CC(=O)Nc2nc3c(OC(F)F)cccn3n2)cc1F` [Example 139, 2-(4-(2-((8-(difluoromethoxy)-[1,2,4]triazolo[1,5-a]pyridin-2-yl)amino)-2-oxoethyl)-2-fluorophenoxy)nicotinamide] gave a concentration for half-maximal inhibition (IC50) of 25 nM. Consider `NC(=O)c1cccnc1Oc1ccc(CC(=O)Nc2nc(C3CCC3)c(-c3ccccn3)s2)cc1Cl` [Example 023, 2-(2-chloro-4-(2-((4-cyclobutyl-5-(pyridin-2-yl)thiazol-2-yl)amino)-2-oxoethyl)phenoxy)nicotinamide], for which half-maximal inhibition (IC50) required 4 nM. With `Cc1cnc(NC(=O)Cc2ccc(Oc3ncccc3C(N)=O)c(F)c2)s1` [Example 088, 2-(2-fluoro-4-(2-((5-methylthiazol-2-yl)amino)-2-oxoethyl)phenoxy) nicotinamide] the figure was 126 nM.

For `COc1ccc2sc(NC(=O)Cc3ccc(Oc4ncccc4C(N)=O)c(OC)c3)nc2c1` [Example 117, 2-(2-methoxy-4-(2-((5-methoxybenzo[d]thiazol-2-yl)amino)-2-oxoethyl)phenoxy)nicotinamide], the IC50 was 139 nM. To `CP(C)(=O)c1ccc2nc(NC(=O)Cc3ccc(Oc4ncccc4C(N)=O)c(F)c3)n(CC3CC3)c2c1` [Example 145, 2-(4-(2-((1-(cyclopropylmethyl)-6-(dimethylphosphoryl)-1H-benzo[d]imidazol-2-yl)amino)-2-oxoethyl)-2-fluorophenoxy)nicotinamide] belongs 133 nM. To `NC(=O)c1ccc2nc(NC(=O)Cc3ccc(Oc4ncccc4C(N)=O)cc3)sc2c1` [Example 066, 2-(2-(4-((3-carbamoylpyridin-2-yl)oxy)phenyl)acet-amido)benzo[d]thi-azole-6-carboxamide] belongs 830 nM; to `Cc1nccc(-c2nc(NC(=O)Cc3ccc(Oc4ncccc4C(N)=O)c(F)c3)sc2C)n1` [Example 089, 2-(2-fluoro-4-(2-((5-methyl-4-(2-methylpyrimidin-4-yl)thiazol-2-yl)amino)-2-oxoethyl)phenoxy) nicotinamide], 14 nM; to `COc1ccn2nc(NC(=O)Cc3ccc(Oc4ncccc4C(N)=O)cc3)nc2c1` [Example 124, 2-(4-(2-((7-methoxy-[1,2,4]-triazolo[1,5-a]-pyridin-2-yl)-amino)-2-oxo-ethyl)phenoxy)-nicotinamide], 68.5 nM. On to `Cn1cc(-c2ccc3sc(NC(=O)Cc4ccc(Oc5ncccc5C(N)=O)c(F)c4)nc3c2)cn1` [Example 035, 2-(2-fluoro-4-(2-((5-(1-methyl-1H-pyrazol-4-yl)benzo[d]thiazol-2-yl)amino)-2-oxoethyl)phenoxy)nico-tinamide], for which 10 nM corresponded to half-maximal inhibition (IC50). With `Cc1sc(NC(=O)Cc2ccc(Oc3ncccc3C(N)=O)c(F)c2)nc1-c1cnc(C(C)(C)O)nc1` [Example 042, 2-(2-fluoro-4-(2-((4-(2-(2-hydroxypropan-2-yl)pyrimidin-5-yl)-5-methylthiazol-2-yl)amino)-2-oxoethyl)phenoxy)nico-tinamide] the figure was 471 nM; with `NC(=O)c1cccnc1Oc1ccc(CC(=O)Nc2nc3cc(Br)ccn3n2)cc1F` [Example 134, 2-(4-(2-((7-bromo-[1,2,4]triazolo[1,5-a]pyridin-2-yl)amino)-2-oxoethyl)-2-fluorophenoxy)nicotinamide], 44 nM; with `Cc1cc(-c2ccc3sc(NC(=O)Cc4ccc(Oc5ncccc5C(N)=O)c(F)c4)nc3c2)n(C)n1` [Example 028, 2-(4-(2-((5-(1,3-dimethyl-1H-pyrazol-5-yl)benzo[d]thiazol-2-yl)amino)-2-oxoethyl)-2-fluorophenoxy)nicotin-amide], 30 nM.

Take `CP(C)(=O)c1ccc2c(c1)nc(NC(=O)Cc1ccc(Oc3ncccc3C(N)=O)c(F)c1)n2CC(F)(F)F` [Example 148, 2-(4-(2-((5-(dimethyl-phosphoryl)-1-(2,2,2-trifluoroethyl)-1H-benzo[d]imidazol-2-yl)amino)-2-oxoethyl)-2-fluorophenoxy)-nicotinamide]: the IC50 amounted to 147 nM. As to `CC(C)(O)COc1ccc2c(c1)CCc1sc(NC(=O)Cc3ccc(Oc4ncccc4C(N)=O)c(Cl)c3)nc1-2` [Example 113, 2-(2-chloro-4-(2-((7-(2-hydroxy-2-methylpropoxy)-4,5-dihydronaphtho[1,2-d]thiazol-2-yl)amino)-2-oxoethyl)phenoxy)nicotinamide], 58 nM corresponded to half-maximal inhibition (IC50). With `Cc1sc(NC(=O)Cc2ccc(Oc3ncccc3C(N)=O)c(Cl)c2)nc1-c1ccc(F)nc1` [Example 103, 2-(2-chloro-4-(2-((4-(6-fluoropyridin-3-yl)-5-methylthiazol-2-yl)amino)-2-oxoethyl)phenoxy) nicotinamide] the figure was 17 nM. To `Cc1n[nH]c(C)c1-c1ccc2sc(NC(=O)Cc3ccc(Oc4ncccc4C(N)=O)c(F)c3)nc2c1` [Example 005, 2-(4-(2-((5-(3,5-dimethyl-1H-pyrazol-4-yl)benzo[d]thiazol-2-yl)amino)-2-oxoethyl)-2-fluorophenoxy)nic-otinamide] belongs 10 nM; to `NC(=O)c1cccnc1Oc1ccc(CC(=O)Nc2nc3ccccc3n2CC2CCC2)cc1F` [Example 152, 2-(4-(2-((1-(cyclobutylmethyl)-1H-benzo[d]imidazol-2-yl)amino)-2-oxoethyl)-2-fluorophenoxy)nicotinamide], 55 nM; to `Cc1sc(NC(=O)Cc2ccc(Oc3ncccc3C(N)=O)c(F)c2)nc1-c1ccc(S(=O)(=O)C(C)C)cc1` [Example 048, 2-(2-fluoro-4-(2-((4-(4-(isopropylsulfonyl)phe-nyl)-5-methylthiazol-2-yl)amino)-2-oxoethyl)phenoxy)nico-tinamide], 112 nM. To `N#Cc1ccc2[nH]c(NC(=O)Cc3ccc(Oc4ncccc4C(N)=O)cc3)nc2c1` [Example 071, 2-(4-(2-((5-cyano-1H-benzo[d]imidazol-2-yl)amino)-2-oxoethyl)phenoxy) nicotinamide] belongs 621 nM; to `CS(=O)(=O)c1ccc2nc(NC(=O)Cc3ccc(Oc4ncccc4C(N)=O)cc3)sc2c1` [Example 076, 2-(4-(2-((6-(methylsulfonyl)benzo[d]thiazol-2-yl)amino)-2-oxoethyl)phenoxy) nicotinamide], 332 nM; to `CCCS(=O)(=O)c1ccc2[nH]c(NC(=O)Cc3ccc(Oc4ncccc4C(N)=O)cc3)nc2c1` [Example 069, 2-(4-(2-oxo-2-((5-(propylsulfonyl)-1H-benzo[d]imidazol-2-yl)amino)ethyl)phe-noxy)nicotinamide], 558 nM. `NC(=O)c1cccnc1Oc1ccc(CC(=O)Nc2nc3ccc(C(F)(F)F)cc3n2CC2CC2)cc1F` [Example 175, 2-(4-(2-((1-(cyclopropyl-methyl)-6-(trifluoro-methyl)-1H-benzo[d]-imidazol-2-yl)amino)-2-oxoethyl)-2-fluorophenoxy)-nicotinamide] gave a half-inhibitory concentration (IC50) of 44 nM. To `COCCn1c(NC(=O)Cc2ccc(Oc3ncccc3C(N)=O)c(F)c2)nc2ccc(OC)cc21` [Example 157, 2-(2-fluoro-4-(2-((6-methoxy-1-(2-methoxyethyl)-1H-benzo[d]-imidazol-2-yl)-amino)-2-oxo-ethyl)phenoxy)-nicotinamide] belongs 804 nM; to `NC(=O)c1cccnc1Oc1ccc(CC(=O)Nc2nc3cc(-c4cnn(C(F)F)c4)ccn3n2)cc1F` [Example 135, 2-(4-(2-((7-(1-(difluoro-methyl)-1H-pyrazol-4-yl)-[1,2,4]-triazolo[1,5-a]pyridin-2-yl)amino)-2-oxoethyl)-2-fluorophen-oxy)nicotin-amide], 25 nM; to `Cc1sc(NC(=O)Cc2ccc(Oc3ncccc3C(N)=O)c(F)c2)nc1-c1cccc(C#N)n1` [Example 045, 2-(4-(2-((4-(6-cyanopyridin-2-yl)-5-methylthiazol-2-yl)amino)-2-oxoethyl)-2-fluorophenoxy)nicotin-amide], 21 nM.

As to `COc1ccn2nc(NC(=O)Cc3ccc(Oc4ncccc4C(N)=O)c(F)c3)nc2c1` [Example 008, 2-(2-fluoro-4-(2-((7-methoxy-[1,2,4]triazolo[1,5-a]pyridin-2-yl)amino)-2-oxoethyl)phenoxy)nicotinamide], the half-maximal inhibitory concentration (IC50) came to 7 nM. To `COc1ccc2nc(NC(=O)Cc3ccc(Oc4ncccc4C(N)=O)c(F)c3)n(CC(F)F)c2c1` [Example 123, 2-(4-(2-((1-(2,2-difluoroethyl)-6-methoxy-1H-benzo-[d]imidazol-2-yl)-amino)-2-oxoethyl)-2-fluorophenoxy)-nicotinamide] belongs 18 nM.
